According to patent publication US11186576B2, “Pyrazolo[1,5-A][1,3,5]triazine and pyrazolo[1,5-A]pyrimidine derivatives as CDK inhibitors” (Aurigene Discovery Technologies Limited, priority 2015, dated 2021):

Assays:
[1] = system: RNA polymerase II CTD phosphorylation (MDA-MB-231/NCI-H358 cells); assay: Inhibition of RNA polymerase II CTD phosphorylation in cell western assay; assay type: cell-based; conditions: 4 hours incubation, phospho RNA Pol II Ser-5 or Ser-2
Procedure: 25000 cells (MDA-MB-231/NCI-H358) were seeded in 96 well black clear bottom plate incubated for overnight before addition of selected compound. 3 fold dilutions of selected compound diluted in DMSO starting from 10 μM, added to cells and incubated for 4 hours at 37° C., 5% CO2 incubator. Cells were washed once with 100 μl of phosphate buffered saline (sigma #P3813), then fixed with 100 μl/well of 4% Para formaldehyde for 60 min at room temperature, in dark. The cells were washed 3 times with 100 μl of wash buffer (PBS with 0.1% Triton-X-100), later blocked for 2 hours at room temperature in blocking buffer (5% BSA in PBST). Cells were stained overnight at 4° C. with Phospho RNA Pol II (S5) (Millipore #04-1572, Abcam #5131) or Phospho RNA Pol II (Ser-2), antibody (Bethyl labs #A300-654-A) in blocking buffer. Post incubation cells were washed with Delifia wash buffer (Perkin Elmer #4010-0010). Cells were treated with LANCE secondary antibodies (LANCE® Eu-W1024 perkin elmer #AD-0076 for phospho Ser-5 CTD RNA pol-II and Delfia Eu-N1 anti rabbit IgG Perkin elmer #AD0106 for phospho Ser-2 CTD RNA pol-II) for 2 hours in assay buffer (Perkin Elmer #1244-111), Cells were washed 3 times with Delfia wash buffer post incubation, Enhancement solution (Perkin Elmer #1244-105) added and incubated for 20 mins. Europium readings were taken in Victor-3 instrument. Cell normalization was done using Hoechst dye (0.5 μg/ml).
Selected compounds were screened in the above mentioned assay procedure. The EC50 values are summarised in the below table; wherein group “A” refers to an EC50 value of less than or equal to 1 μM, group “B” refers to EC50 value in range of 1 to 10 μM and group “C” refers to EC50 value of greater than 10 μM.

CDK7/CycH/MNAT1 = CDK7/CycH/MNAT1 (Homo sapiens (Human), UniProt P50613); assay: Biochemical assay for CDK7 (TR-FRET kinase assay); conditions: 60 min pre-incubation, 1 mM ATP; for % inhibition @ 10 μM / inhibition at 10 µM: 10 μM compound; for IC50: read-out: IC50; for inhibition at 10 µM: read-out: % inhibition @ 10 μM
Chain of CDK7/CycH/MNAT1 (P50613 whole entry): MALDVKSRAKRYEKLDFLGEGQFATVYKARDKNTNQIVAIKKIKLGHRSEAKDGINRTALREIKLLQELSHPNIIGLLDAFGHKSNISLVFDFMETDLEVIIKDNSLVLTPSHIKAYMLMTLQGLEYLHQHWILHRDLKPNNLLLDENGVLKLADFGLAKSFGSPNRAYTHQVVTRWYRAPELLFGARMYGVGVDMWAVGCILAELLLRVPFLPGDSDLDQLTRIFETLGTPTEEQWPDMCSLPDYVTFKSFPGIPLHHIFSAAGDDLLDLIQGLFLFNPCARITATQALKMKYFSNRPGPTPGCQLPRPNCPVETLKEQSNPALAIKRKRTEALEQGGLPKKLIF
Chain of CDK7/CycH/MNAT1 (P51946 whole entry partner): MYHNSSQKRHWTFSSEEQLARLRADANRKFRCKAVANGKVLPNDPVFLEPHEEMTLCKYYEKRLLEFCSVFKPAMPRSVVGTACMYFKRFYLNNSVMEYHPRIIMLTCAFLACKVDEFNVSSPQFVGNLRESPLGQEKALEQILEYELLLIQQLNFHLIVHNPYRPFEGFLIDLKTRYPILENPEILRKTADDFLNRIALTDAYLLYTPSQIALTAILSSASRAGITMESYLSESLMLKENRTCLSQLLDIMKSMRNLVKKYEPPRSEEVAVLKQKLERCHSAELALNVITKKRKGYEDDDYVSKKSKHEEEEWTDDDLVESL
Chain of CDK7/CycH/MNAT1 (P51948 whole entry partner): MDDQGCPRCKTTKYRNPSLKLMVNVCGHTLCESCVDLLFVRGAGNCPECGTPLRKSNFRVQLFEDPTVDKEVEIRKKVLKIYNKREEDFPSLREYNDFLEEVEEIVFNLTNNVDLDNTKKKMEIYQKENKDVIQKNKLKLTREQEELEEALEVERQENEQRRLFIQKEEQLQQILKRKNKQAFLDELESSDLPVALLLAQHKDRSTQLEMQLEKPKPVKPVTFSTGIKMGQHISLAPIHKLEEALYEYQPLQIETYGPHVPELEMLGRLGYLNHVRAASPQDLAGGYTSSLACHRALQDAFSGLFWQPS
Summary of the method: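 CDK7/CycH/MNAT1 (5 nM) was preincubated with compound for 60 min at room temperature, then reacted for 60 min with 100 nM ULight-MBP and 1 mM ATP in 1% DMSO. Irreversibility was probed with 20, 60 and 180 min preincubations.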

## C=CC(=O)N1CCC(C(=O)Nc2cccc(CNc3nc(NC4CCCC(O)C4)nc4c(C(C)C)cnn34)c2)C1 (single isomer, unassigned) [Compound 13, 1-acryloyl-N-(3-(((2-((3-hydroxycyclohexyl)amino)-8-isopropylpyrazolo[1,5-a][1,3,5]triazin-4-yl)amino)methyl)phenyl)pyrrolidine-3-carboxamide]
[1]
  EC50: 1000 to 10000 nM
CDK7/CycH/MNAT1
  % inhibition @ 10 μM: 93%
  IC50: 300 to 1000 nM

## C=CC(=O)N1CCC(C(=O)Nc2cccc(CNc3nc(OC4CCN(C)CC4)nc4c(C(C)C)cnn34)c2)C1 (single isomer, unassigned) [Compound 109, 1-acryloyl-N-(3-(((8-isopropyl-2-((1-methylpiperidin-4-yl)oxy)pyrazolo[1,5-a][1,3,5]triazin-4-yl)amino)methyl)phenyl)pyrrolidine-3-carboxamide]
[1]
  EC50: 1000 to 10000 nM
CDK7/CycH/MNAT1
  inhibition at 10 µM: 98%
  IC50: < 300 nM

## C=CC(=O)N1CCC(C(=O)Nc2cccc(CNc3nc(OC4CCN(C)CC4)nc4c(C(C)C)cnn34)c2)C1 (single isomer, unassigned) [Compound 110, 1-acryloyl-N-(3-(((8-isopropyl-2-((1-methylpiperidin-4-yl)oxy)pyrazolo[1,5-a][1,3,5]triazin-4-yl)amino)methyl)phenyl)pyrrolidine-3-carboxamide]
[1]
  EC50: 1000 to 10000 nM
CDK7/CycH/MNAT1
  % inhibition @ 10 μM: 99%
  IC50: < 300 nM

## C=CC(=O)N1CCCC(C(=O)Nc2cccc(CNc3nc(NC4CCOCC4)nc4c(C(C)C)cnn34)c2)C1 (stereo not drawn) [Compound 1, 1-acryloyl-N-(3-(((8-isopropyl-2-((tetrahydro-2H-pyran-4-yl)amino)pyrazolo[1,5-a][1,3,5]triazin-4-yl)amino)methyl)phenyl)piperidine-3-carboxamide]
[1]
  EC50: ≤ 1000 nM
CDK7/CycH/MNAT1
  inhibition at 10 µM: 88%
  IC50: 300 to 1000 nM

## C=CC(=O)N1CCC1C(=O)Nc1cccc(CNc2nc(NC3CCOCC3)nc3c(C(C)C)cnn23)c1 (stereo not drawn) [Compound 2, 1-acryloyl-N-(3-(((8-isopropyl-2-((tetrahydro-2H-pyran-4-yl)amino)pyrazolo[1,5-a][1,3,5]triazin-4-yl)amino)methyl)phenyl)azetidine-2-carboxamide]
[1]
  EC50: ≤ 1000 nM
CDK7/CycH/MNAT1
  inhibition at 10 µM: 98%
  IC50: < 300 nM

## C=CC(=O)N1CCCC1C(=O)Nc1cccc(CNc2nc(NC3CCOCC3)nc3c(C(C)C)cnn23)c1 (stereo not drawn) [Compound 3, 1-acryloyl-N-(3-(((8-isopropyl-2-((tetrahydro-2H-pyran-4-yl)amino)pyrazolo[1,5-a][1,3,5]triazin-4-yl)amino)methyl)phenyl)pyrrolidine-2-carboxamide]
[1]
  EC50: ≤ 1000 nM
CDK7/CycH/MNAT1
  inhibition at 10 µM: 96%
  IC50: < 300 nM

## C=CC(=O)N1CCC(C(=O)Nc2cccc(CNc3nc(NC4CCOCC4)nc4c(C(C)C)cnn34)c2)C1 (stereo not drawn) [Compound 4, 1-acryloyl-N-(3-(((8-isopropyl-2-((tetrahydro-2H-pyran-4-yl)amino)pyrazolo[1,5-a][1,3,5]triazin-4-yl)amino)methyl)phenyl)pyrrolidine-3-carboxamide]
[1]
  EC50: ≤ 1000 nM
CDK7/CycH/MNAT1
  inhibition at 10 µM: 93%
  IC50: < 300 nM

## C=CC(=O)N1CCCC(C(=O)Nc2cccc(CNc3nc(NC4CCN(C)CC4)nc4c(C(C)C)cnn34)c2)C1 (stereo not drawn) [Compound 8, 1-acryloyl-N-(3-(((8-isopropyl-2-((1-methylpiperidin-4-yl)amino)pyrazolo[1,5-a][1,3,5]triazin-4-yl)amino)methyl)phenyl)piperidine-3-carboxamide]
[1]
  EC50: ≤ 1000 nM
CDK7/CycH/MNAT1
  inhibition at 10 µM: 96%
  IC50: < 300 nM

## C=CC(=O)N1CCC(C(=O)Nc2cccc(CNc3nc(N[C@@H]4CCNC[C@H]4F)nc4c(C(C)C)cnn34)c2)C1 (stereo partly drawn) [Compound 14, 1-acryloyl-N-(3-(((2-(((3R,4R)-3-fluoropiperidin-4-yl)amino)-8-isopropylpyrazolo[1,5-a][1,3,5]triazin-4-yl)amino)methyl)phenyl)pyrrolidine-3-carboxamide]
[1]
  EC50: 1000 to 10000 nM
CDK7/CycH/MNAT1
  inhibition at 10 µM: 97%
  IC50: < 300 nM

## C=CC(=O)N1CCC(C(=O)Nc2cccc(CNc3nc(NC4CCCC(N)C4)nc4c(C(C)C)cnn34)c2)C1 (stereo not drawn) [Compound 15, 1-acryloyl-N-(3-(((2-((3-aminocyclohexyl)amino)-8-isopropylpyrazolo[1,5-a][1,3,5]triazin-4-yl)amino)methyl)phenyl)pyrrolidine-3-carboxamide]
[1]
  EC50: > 10000 nM
CDK7/CycH/MNAT1
  inhibition at 10 µM: 98%
  IC50: < 300 nM

## C=CC(=O)N1CC(C(=O)Nc2cccc(CNc3nc(NC4CCOCC4)nc4c(C(C)C)cnn34)c2)C1 [Compound 18, 1-acryloyl-N-(3-(((8-isopropyl-2-((tetrahydro-2H-pyran-4-yl)amino)pyrazolo[1,5-a][1,3,5]triazin-4-yl)amino)methyl)phenyl)azetidine-3-carboxamide]
[1]
  EC50: ≤ 1000 nM
CDK7/CycH/MNAT1
  inhibition at 10 µM: 101%
  IC50: < 300 nM

## C=CC(=O)N1CC[C@H]1C(=O)Nc1cccc(CNc2nc(NC3CCOCC3)nc3c(C(C)C)cnn23)c1 [Compound 20, (S)-1-acryloyl-N-(3-(((8-isopropyl-2-((tetrahydro-2H-pyran-4-yl)amino)pyrazolo[1,5-a][1,3,5]triazin-4-yl)amino)methyl)phenyl)azetidine-2-carboxamide]
[1]
  EC50: ≤ 1000 nM
CDK7/CycH/MNAT1
  inhibition at 10 µM: 100%
  IC50: < 300 nM

## C=CC(=O)N1CCCCC1C(=O)Nc1cccc(CNc2nc(NC3CCOCC3)nc3c(C(C)C)cnn23)c1 (stereo not drawn) [Compound 21, 1-acryloyl-N-(3-(((8-isopropyl-2-((tetrahydro-2H-pyran-4-yl)amino)pyrazolo[1,5-a][1,3,5]triazin-4-yl)amino)methyl)phenyl)piperidine-2-carboxamide]
[1]
  EC50: ≤ 1000 nM
CDK7/CycH/MNAT1
  inhibition at 10 µM: 96%
  IC50: < 300 nM

## C=CC(=O)N1CCOCC1C(=O)Nc1cccc(CNc2nc(NC3CCOCC3)nc3c(C(C)C)cnn23)c1 (stereo not drawn) [Compound 24, 4-acryloyl-N-(3-(((8-isopropyl-2-((tetrahydro-2H-pyran-4-yl)amino)pyrazolo[1,5-a][1,3,5]triazin-4-yl)amino)methyl)phenyl)morpholine-3-carboxamide]
[1]
  EC50: ≤ 1000 nM
CDK7/CycH/MNAT1
  inhibition at 10 µM: 98%
  IC50: < 300 nM

## C=CC(=O)N1CCC(C(=O)Nc2ccc(F)c(CNc3nc(NC4CCOCC4)nc4c(C(C)C)cnn34)c2)C1 (stereo not drawn) [Compound 32, 1-acryloyl-N-(4-fluoro-3-(((8-isopropyl-2-((tetrahydro-2H-pyran-4-yl)amino)pyrazolo[1,5-a][1,3,5]triazin-4-yl)amino)methyl)phenyl)pyrrolidine-3-carboxamide]
[1]
  EC50: 1000 to 10000 nM
CDK7/CycH/MNAT1
  inhibition at 10 µM: 91%
  IC50: < 300 nM

## C=CC(=O)N[C@H]1CC[C@@H](C(=O)Nc2cccc(CNc3nc(NC4CCOCC4)nc4c(C(C)C)cnn34)c2F)CC1 [Compound 38, (1,4-cis)-4-acrylamido-N-(2-fluoro-3-(((8-isopropyl-2-((tetrahydro-2H-pyran-4-yl)amino)pyrazolo[1,5-a][1,3,5]triazin-4-yl)amino)methyl)phenyl)cyclohexane-1-carboxamide]
[1]
  EC50: 1000 to 10000 nM
CDK7/CycH/MNAT1
  inhibition at 10 µM: 95%
  IC50: < 300 nM

## CC(C)c1cnn2c(NCc3cccc(NC(=O)C4CCN(C(=O)/C=C/CN(C)C)C4)c3)nc(NC3CCOCC3)nc12 (stereo not drawn) [Compound 69, (E)-1-(4-(dimethylamino)but-2-enoyl)-N-(3-(((8-isopropyl-2-((tetrahydro-2H-pyran-4-yl)amino)pyrazolo[1,5-a][1,3,5]triazin-4-yl)amino)methyl)phenyl)pyrrolidine-3-carboxamide]
[1]
  EC50: 1000 to 10000 nM
CDK7/CycH/MNAT1
  inhibition at 10 µM: 98%
  IC50: < 300 nM

## C=CS(=O)(=O)N1CCCCC1C(=O)Nc1cccc(CNc2nc(NC3CCOCC3)nc3c(C(C)C)cnn23)c1 (stereo not drawn) [Compound 78, N-(3-(((8-isopropyl-2-((tetrahydro-2H-pyran-4-yl)amino)pyrazolo [1,5-a][1,3,5]triazin-4-yl)amino)methyl)phenyl)-1-(vinylsulfonyl)piperidine-2-carboxamide]
[1]
  EC50: ≤ 1000 nM
CDK7/CycH/MNAT1
  inhibition at 10 µM: 100%
  IC50: < 300 nM

## C=CC(=O)NC1(C(=O)Nc2cccc(CNc3nc(NC4CCOCC4)nc4c(C(C)C)cnn34)c2)CC1 [Compound 83, 1-acrylamido-N-(3-(((8-isopropyl-2-((tetrahydro-2H-pyran-4-yl)amino)pyrazolo[1,5-a][1,3,5]triazin-4-yl)amino)methyl)phenyl)cyclopropane-1-carboxamide]
[1]
  EC50: ≤ 1000 nM
CDK7/CycH/MNAT1
  inhibition at 10 µM: 96%
  IC50: < 300 nM
